The results in this text go back to ChEMBL document CHEMBL1151133, “Plant metabolites. Structure and in vitro antiviral activity of quinovic acid glycosides from Uncaria tomentosa and Guettarda platypoda” (J Nat Prod, 1989).

Converted amounts (≈) assume the structure as drawn.

The nature of series [1]: Cytotoxicity against golden hamster CER cells after 2 days by neutral red uptake assay. The class given is cell-based, Mesocricetus auratus. The following applies: read-out: TC50.
Series [2] deals with Vesicular stomatitis Indiana virus. As to the kind of experiment: Antiviral activity against Vesicular stomatitis Indiana virus infected in golden hamster CER cells assessed as reduction in virus plaque formation after 36 to 48 hrs. The class given is functional.
Series [3] can be described thus: Cytotoxicity against human HeLa cells assessed as maximum non-toxic drug level after 2 days by neutral red uptake assay. It is filed as cell-based. The following applies: read-out: MNCC.
For series [4], the system named is rhinovirus A1B. As to the kind of experiment: Antiviral activity against HRV1B infected in human HeLa cells assessed as reduction in virus-induced cytopathic effect at 30 ug/ml. It is filed as functional, Human rhinovirus 1B. Further details: scale not given: the % may be the effect or the level left.
Series [5] has as its system rhinovirus A1B. As to the kind of experiment: Antiviral activity against HRV1B infected in human HeLa cells assessed as reduction in virus-induced cytopathic effect at 20 ug/ml. The class given is functional, Human rhinovirus 1B. Also noted: scale not given: the % may be the effect or the level left.

As for `C[C@H]1[C@H](C)CC[C@]2(C(=O)O)CC[C@]3(C(=O)O[C@@H]4O[C@H](CO)[C@@H](O)[C@H](O)[C@H]4O)C(=CC[C@@H]4[C@@]5(C)CC[C@H](O[C@@H]6O[C@H](CO)[C@@H](O)[C@H](O)[C@H]6O)C(C)(C)[C@@H]5CC[C@]43C)[C@H]12`, the CC50 at 48 h in series [1] was determined as 150 µg/mL (≈ 185 µM). Besides, in series [2], the MIC50 turned out to be 87 µM (≈ 70.6 µg/mL).

Consider `C[C@H]1[C@H](C)CC[C@]2(C(=O)O)CC[C@]3(C(=O)O)C(=CC[C@@H]4[C@@]5(C)CC[C@H](O[C@@H]6O[C@H](C)[C@H](O)[C@H](O[C@@H]7O[C@H](CO)[C@@H](O)[C@H](O)[C@H]7O)[C@H]6O)C(C)(C)[C@@H]5CC[C@]43C)[C@H]12`, for which the CC50 at 48 h in series [1] was 100 µg/mL (≈ 126 µM). Moreover, in series [2], the MIC50 turned out to be 25 µM (≈ 19.9 µg/mL).

Take `C[C@H]1[C@H](C)CC[C@]2(C(=O)O[C@@H]3O[C@H](CO)[C@@H](O)[C@H](O)[C@H]3O)CC[C@]3(C(=O)O)C(=CC[C@@H]4[C@@]5(C)CC[C@H](O[C@@H]6O[C@H](C)[C@H](O)[C@H](O[C@@H]7O[C@H](CO)[C@@H](O)[C@H](O)[C@H]7O)[C@H]6O)C(C)(C)[C@@H]5CC[C@]43C)[C@H]12`: in series [1], the CC50 at 48 h worked out at 80 µg/mL (≈ 83.6 µM). The MIC50 in series [2] was determined as 42 µM (≈ 40.2 µg/mL).

`C[C@H]1[C@H](C)CC[C@]2(C(=O)O[C@@H]3O[C@H](CO)[C@@H](O)[C@H](O)[C@H]3O)CC[C@]3(C(=O)O)C(=CC[C@@H]4[C@@]5(C)CC[C@H](O[C@@H]6O[C@H](C)[C@@H](O)[C@H](O)[C@H]6O)C(C)(C)[C@@H]5CC[C@]43C)[C@H]12`: the CC50 at 48 h in series [1] was determined as 80 µg/mL (≈ 101 µM). Moreover, in series [2], the MIC50 was found to be 28 µM (≈ 22.3 µg/mL).

In the case of `C[C@H]1[C@H](C)CC[C@]2(C(=O)O)CC[C@]3(C(=O)O[C@@H]4O[C@H](CO)[C@@H](O)[C@H](O)[C@H]4O)C(=CC[C@@H]4[C@@]5(C)CC[C@H](O[C@@H]6O[C@H](C)[C@H](O)[C@H](O[C@@H]7O[C@H](CO)[C@@H](O)[C@H](O)[C@H]7O)[C@H]6O)C(C)(C)[C@@H]5CC[C@]43C)[C@H]12`, in series [1], the CC50 at 48 h came to 100 µg/mL (≈ 104 µM). Further, in series [2], the MIC50 was found to be 63 µM (≈ 60.3 µg/mL).

As for `C[C@H]1[C@H](C)CC[C@]2(C(=O)O[C@@H]3O[C@H](CO)[C@@H](O)[C@H](O)[C@H]3O)CC[C@]3(C(=O)O)C(=CC[C@@H]4[C@@]5(C)CC[C@H](O[C@@H]6O[C@H](CO)[C@@H](O)[C@H](O)[C@H]6O)C(C)(C)[C@@H]5CC[C@]43C)[C@H]12`, in series [3], the MNTC at 48 h was determined as 100 µg/mL. Further, the Activity with rhinovirus A1B [4] and in the series with rhinovirus A1B [5] was 50% each time. Further, the CC50 at 48 h in series [1] worked out at 150 µg/mL (≈ 185 µM). In addition, the MIC50 in series [2] is 40 µM (≈ 32.4 µg/mL).

Turning to `C[C@H]1[C@H](C)CC[C@]2(C(=O)O[C@@H]3O[C@H](CO)[C@@H](O)[C@H](O)[C@H]3O)CC[C@]3(C(=O)O)C(=CC[C@@H]4[C@@]5(C)CC[C@H](O[C@@H]6O[C@H](C)[C@H](O)[C@H](O)[C@H]6O)C(C)(C)[C@@H]5CC[C@]43C)[C@H]12`, the CC50 at 48 h in series [1] turned out to be 80 µg/mL (≈ 101 µM). Moreover, in series [2], the MIC50 was determined as 40 µM (≈ 31.8 µg/mL).

As to `C[C@H]1[C@H](C)CC[C@]2(C(=O)O)CC[C@]3(C(=O)O)C(=CC[C@@H]4[C@@]5(C)CC[C@H](O[C@@H]6O[C@H](CO)[C@@H](O)[C@H](O)[C@H]6O)C(C)(C)[C@@H]5CC[C@]43C)[C@H]12`, in series [1], the CC50 at 48 h was 150 µg/mL (≈ 231 µM). For the same molecule, in series [2], the MIC50 was 51 µM (≈ 33.1 µg/mL).
